Experiments:
Integrase [1] = target: T1, Integrase (Human immunodeficiency virus 1, UniProt Q7ZJM1); assay: Integration of DNA by HIV -1 integrase
Integrase [2] = target: T1, Integrase; assay: Inhibitory activity against 3'-processing of DNA byHIV-1 integrase
Integrase [3] = target: T1, Integrase; assay: Inhibitory activity against 3'-processing of DNA by HIV-1 integrase

T1 sequence (Q7ZJM1 whole entry): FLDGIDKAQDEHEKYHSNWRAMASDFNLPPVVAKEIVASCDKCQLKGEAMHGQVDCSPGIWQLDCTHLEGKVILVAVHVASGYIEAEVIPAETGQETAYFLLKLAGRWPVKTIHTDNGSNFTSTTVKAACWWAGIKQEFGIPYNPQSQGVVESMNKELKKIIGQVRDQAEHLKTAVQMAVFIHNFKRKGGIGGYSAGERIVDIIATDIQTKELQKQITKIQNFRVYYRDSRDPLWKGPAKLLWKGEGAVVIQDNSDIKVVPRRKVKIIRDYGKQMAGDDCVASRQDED

| SMILES | IC50 (Integrase [1]) [µM] | IC50 (Integrase [2]) [µM] | IC50 (Integrase [3]) [µM] |
| --- | --- | --- | --- |
| O=c1oc2ccccc2c(O)c1C(c1cc(OCc2ccccc2)cc(OCc2ccccc2)c1)c1c(O)c2ccccc2oc1=O | 12 | – | – |
| O=c1oc2ccccc2c(O)c1C(c1ccc([N+](=O)[O-])cc1)c1c(O)c2ccccc2oc1=O | – | 50 | – |
| O=c1oc2ccccc2c(O)c1C(c1ccc(-c2ccccc2)cc1)c1c(O)c2ccccc2oc1=O | – | – | 14 |
| O=c1oc2ccccc2c(O)c1C(c1ccc2ccccc2c1)c1c(O)c2ccccc2oc1=O | 16 | – | 20 |
| CN(C)c1ccc(C(c2c(O)c3ccccc3oc2=O)c2c(O)c3ccccc3oc2=O)cc1 | 50 | 88 | 100 |
| O=c1oc2ccccc2c(O)c1C(c1ccco1)c1c(O)c2ccccc2oc1=O | – | – | 34 |
| O=c1oc2ccccc2c(O)c1C(c1cccs1)c1c(O)c2ccccc2oc1=O | – | – | 100 |
| O=c1oc2ccccc2c(O)c1C(c1ccc(OCc2ccccc2)cc1)c1c(O)c2ccccc2oc1=O [3-[4-benzyloxyphenyl(4-hydroxy-2-oxo-2H-3-chromenyl)methyl]-4-hydroxy-2H-2-chromenone] | – | – | 19 |
| O=c1oc2ccccc2c(O)c1C(c1ccc2c(c1)Cc1ccccc1-2)c1c(O)c2ccccc2oc1=O [3-[9H-2-fluorenyl(4-hydroxy-2-oxo-2H-3-chromenyl)methyl]-4-hydroxy-2H-2-chromenone] | – | – | 11 |
| O=c1oc2ccccc2c(O)c1Cc1cccc(Cc2c(O)c3ccccc3oc2=O)c1 [4-hydroxy-3-[3-(4-hydroxy-2-oxo-2H-3-chromenylmethyl)benzyl]-2H-2-chromenone] | – | – | 34 |
